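The compound was tested at five concentrations on cells cultured in 96-well plates, with a 48-hour exposure period. TGI: total growth inhibition.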

Among the test systems are ACHN renal; BT-549 breast; CAKI-1 renal; DU-145 prostate; EKVX NSCLC; RXF 393 renal; SK-MEL-5 melanoma; SNB-19 CNS; SW-620 colon; UACC-62 melanoma.
Holding throughout (assay): NCI tumour cell line growth inhibition, 48 h

With `O=C1[C@H](O)[C@@H]2C(O)O[C@H]3[C@@H]2N1C[C@H]3[Si](c1ccccc1)(c1ccccc1)c1ccccc1` (stereo partly drawn), the TGI in the assay with ACHN renal, with BT-549 breast, in the assay on CAKI-1 renal, in the assay on DU-145 prostate, with EKVX NSCLC and in the assay on RXF 393 renal was over 100 µM in each case. Further, the TGI with SK-MEL-5 melanoma, in the assay with SNB-19 CNS, with SW-620 colon and with UACC-62 melanoma was over 100 µM in each case.
Consider `CC(=O)c1c(-c2cccc3ccccc23)c(C#N)c(=S)n(C2OC(CO)C(O)C(O)C2O)c1C` (stereo not drawn), for which the TGI with ACHN renal is over 100 µM; in the assay with BT-549 breast, over 100 µM; in the assay with CAKI-1 renal, over 100 µM; in the assay on DU-145 prostate it was over 100 µM; with EKVX NSCLC, 32.4 µM; in the assay on RXF 393 renal, over 100 µM. The TGI with SK-MEL-5 melanoma, with SNB-19 CNS, in the assay with SW-620 colon and in the assay with UACC-62 melanoma was over 100 µM in each case.
For `CC(=O)Nc1ccc2c(C)c3c(nc2n1)[nH]c1ccccc13`, the TGI in the assay with ACHN renal is 59.6 µM; with BT-549 breast, 80.2 µM; in the assay with CAKI-1 renal, 96.2 µM; with DU-145 prostate, over 100 µM; in the assay with EKVX NSCLC it was 98.1 µM; in the assay with RXF 393 renal, over 100 µM. Further, the TGI is 28 µM in the assay on SK-MEL-5 melanoma, over 100 µM in the assay with SW-620 colon and 60.9 µM in the assay on UACC-62 melanoma.
Regarding `Cc1ccc(C(=N)c2ccccc2Cc2cccc3ccccc23)c2ccccc12`, the TGI in the assay on ACHN renal, with BT-549 breast, with CAKI-1 renal, with DU-145 prostate, in the assay on EKVX NSCLC and in the assay on RXF 393 renal was over 100 µM throughout. In addition, the TGI in the assay with SK-MEL-5 melanoma, in the assay on SNB-19 CNS, in the assay with SW-620 colon and in the assay on UACC-62 melanoma was over 100 µM in each case.
On to `CCn1nc(C)c2c1C(=O)NCC(=O)N2`, for which the TGI with ACHN renal, in the assay with BT-549 breast, with CAKI-1 renal, in the assay with DU-145 prostate, with EKVX NSCLC and in the assay on RXF 393 renal was over 100 µM throughout. Moreover, the TGI with SK-MEL-5 melanoma, with SNB-19 CNS, in the assay with SW-620 colon and in the assay with UACC-62 melanoma was over 100 µM throughout.
`COC1CC(N)(c2ccccc2)C(O)C(C)O1` (stereo not drawn): the TGI with ACHN renal, in the assay with BT-549 breast, in the assay with CAKI-1 renal, in the assay with DU-145 prostate, with EKVX NSCLC and in the assay on RXF 393 renal was over 100 µM throughout. Further, the TGI in the assay with SK-MEL-5 melanoma, in the assay with SNB-19 CNS, in the assay on SW-620 colon and with UACC-62 melanoma was over 100 µM throughout.
Turning to `O=C(O)CCc1nc2c(n1-c1ccccc1)C(=O)c1ccccc1C2=O`, the TGI in the assay with ACHN renal, with BT-549 breast, in the assay with CAKI-1 renal, in the assay on DU-145 prostate, in the assay with EKVX NSCLC and with RXF 393 renal was over 100 µM each time. Moreover, the TGI in the assay with SK-MEL-5 melanoma, with SNB-19 CNS, in the assay with SW-620 colon and with UACC-62 melanoma was over 100 µM in each case.
In the case of `N#CCCN(CCC#N)c1ccc(/C=C2\N=C(c3ccccc3)N(c3ccc(F)cc3)C2=O)cc1`, the TGI with ACHN renal, in the assay on BT-549 breast, in the assay with CAKI-1 renal, in the assay with DU-145 prostate, in the assay with EKVX NSCLC and in the assay with RXF 393 renal was over 100 µM each time. The TGI in the assay with SK-MEL-5 melanoma, with SNB-19 CNS, in the assay with SW-620 colon and with UACC-62 melanoma was over 100 µM in each case.
For the molecule `COc1cccc(N2C(=O)CSC2c2cccc(Oc3ccccc3)c2)c1` (stereo not drawn), the TGI is 41 µM in the assay on ACHN renal; 45.6 µM in the assay with BT-549 breast; 14.3 µM in the assay with CAKI-1 renal; over 100 µM in the assay with DU-145 prostate; 61.4 µM in the assay with EKVX NSCLC; 39.1 µM in the assay on RXF 393 renal. The TGI with SK-MEL-5 melanoma is 16.9 µM; in the assay with SNB-19 CNS, over 100 µM; in the assay on SW-620 colon, over 100 µM; in the assay on UACC-62 melanoma, 11.7 µM.
Turning to `COc1cc(/C=C2\C(=O)N(c3cccc([N+](=O)[O-])c3)C(c3ccccc3)S2(=O)=O)cc(OC)c1OC` (stereo not drawn), the TGI in the assay with ACHN renal, in the assay on BT-549 breast, in the assay on CAKI-1 renal, in the assay on DU-145 prostate, with EKVX NSCLC and in the assay with RXF 393 renal was over 100 µM in each case. Besides, the TGI in the assay with SK-MEL-5 melanoma, in the assay with SNB-19 CNS, with SW-620 colon and with UACC-62 melanoma was over 100 µM throughout.
`NC(=O)Nc1c(Cl)cc(S(N)(=O)=O)cc1Cl`: the TGI in the assay on BT-549 breast, with CAKI-1 renal, in the assay on DU-145 prostate, in the assay with EKVX NSCLC, with RXF 393 renal and with SK-MEL-5 melanoma was over 100 µM throughout. The TGI in the assay on SNB-19 CNS, with SW-620 colon and in the assay with UACC-62 melanoma was over 100 µM in each case.
For the molecule `CC(C)(C)c1ccccc1N1C(=O)c2ccc3c4c(ccc(c24)C1=O)N(c1ccccc1C(C)(C)C)C3=O`, the TGI in the assay with ACHN renal, with BT-549 breast, with CAKI-1 renal, in the assay with DU-145 prostate, in the assay on EKVX NSCLC and in the assay on RXF 393 renal was over 100 µM throughout. The TGI in the assay with SK-MEL-5 melanoma, in the assay with SNB-19 CNS, in the assay on SW-620 colon and with UACC-62 melanoma was over 100 µM throughout.
As to `c1ccc(/C(=N/Nc2nc3ccccc3s2)C2CCCCC2)nc1`, the TGI in the assay with ACHN renal stood at 19.3 µM; in the assay with BT-549 breast it was 35.1 µM; in the assay with CAKI-1 renal, 21.6 µM; with DU-145 prostate, 34.2 µM; with EKVX NSCLC, 25.5 µM; in the assay with RXF 393 renal, 24.8 µM. Further, the TGI turned out to be 18.9 µM with SK-MEL-5 melanoma, 30.6 µM in the assay with SNB-19 CNS, 20.1 µM in the assay with SW-620 colon and 31.3 µM in the assay on UACC-62 melanoma.
Turning to `Cn1nc2ccc([N+](=O)[O-])c(Cn3nnc4ccccc43)c2n1`, the TGI with ACHN renal, with BT-549 breast, with CAKI-1 renal, in the assay on DU-145 prostate, in the assay with EKVX NSCLC and with RXF 393 renal was over 100 µM throughout. Further, the TGI in the assay on SK-MEL-5 melanoma, in the assay on SNB-19 CNS, in the assay on SW-620 colon and in the assay on UACC-62 melanoma was over 100 µM in each case.
For the molecule `O=[N+]([O-])c1ccccc1OCCOc1ccccc1[N+](=O)[O-]`, the TGI with ACHN renal, with BT-549 breast, in the assay on CAKI-1 renal, with DU-145 prostate, in the assay on EKVX NSCLC and in the assay on RXF 393 renal was over 100 µM each time. In addition, the TGI in the assay on SK-MEL-5 melanoma, in the assay on SNB-19 CNS, in the assay with SW-620 colon and with UACC-62 melanoma was over 100 µM in each case.
As for `CC(C)/C(Cl)=N/OC(=O)Nc1ccc(Br)cc1`, the TGI turned out to be 3.77 µM in the assay on ACHN renal; 9.19 µM in the assay on BT-549 breast; 3.2 µM in the assay on CAKI-1 renal; 27.4 µM with DU-145 prostate; 4.37 µM in the assay on EKVX NSCLC; 23.9 µM with RXF 393 renal. The TGI was found to be 26.3 µM in the assay with SK-MEL-5 melanoma, 44.1 µM with SNB-19 CNS, 4.6 µM in the assay on SW-620 colon and 17 µM in the assay with UACC-62 melanoma.
`Cn1c(=O)c2[nH]c(N/N=N/c3nncs3)nc2n(C)c1=O`: the TGI with ACHN renal, in the assay with BT-549 breast, in the assay with CAKI-1 renal, in the assay with DU-145 prostate, in the assay with EKVX NSCLC and with RXF 393 renal was over 100 µM throughout. In addition, the TGI in the assay on SK-MEL-5 melanoma, in the assay with SNB-19 CNS, in the assay with SW-620 colon and in the assay on UACC-62 melanoma was over 100 µM in each case.
With `COc1ccc(N2CC(=O)N(C(=O)COc3ccc(OCC(=O)N4C(=O)CN(c5ccc(OC)cc5)C4=S)cc3)C2=S)cc1`, the TGI in the assay on ACHN renal, in the assay on BT-549 breast, with CAKI-1 renal, in the assay with DU-145 prostate, in the assay with EKVX NSCLC and in the assay with RXF 393 renal was over 100 µM each time. In addition, the TGI in the assay on SK-MEL-5 melanoma, in the assay on SNB-19 CNS, with SW-620 colon and with UACC-62 melanoma was over 100 µM in each case.
Take `O=C(O)CC(Cc1ccccc1Cl)C(=O)O` (stereo not drawn): the TGI in the assay on ACHN renal, in the assay on BT-549 breast, with CAKI-1 renal, in the assay on DU-145 prostate, with EKVX NSCLC and with RXF 393 renal was over 100 µM throughout. Further, the TGI with SK-MEL-5 melanoma, in the assay with SNB-19 CNS, with SW-620 colon and in the assay on UACC-62 melanoma was over 100 µM each time.
Regarding `CC1=NNC(=O)C1C1C(=O)NN=C(c2c[nH]c3ccccc23)C1Br` (stereo not drawn), the TGI in the assay on ACHN renal, in the assay on BT-549 breast, in the assay with CAKI-1 renal, in the assay on DU-145 prostate, in the assay with EKVX NSCLC and in the assay on RXF 393 renal was over 100 µM in each case. Moreover, the TGI with SK-MEL-5 melanoma, in the assay on SNB-19 CNS, with SW-620 colon and with UACC-62 melanoma was over 100 µM each time.
